# According to US20250186391A1, “ORAL COMPLEMENT FACTOR D INHIBITORS” (BioCryst Pharmaceuticals, Inc., priority 2019, published 2025):
# Target: Factor D (Homo sapiens (Human), UniProt P00746)
# Test: Factor D esterolytic assay
# Type: biochemical
# Conditions: Z-Lys-SBzl substrate, 100 mM HEPES, 500 mM NaCl, pH 7.5, 10% DMSO; tested a minimum of three times; read-out: Measured Ki (IC50) Value for Compounds: IC50
# Method: The IC50 value of a compound (i.e., the concentration of the compound that inhibits 50% of the enzymatic activity) was calculated according to the procedure reported in U.S. Pat. No. 6,653,340 B1, e.g., column 74 (incorporated by reference).
# Specifically, the compounds were dissolved in a stock solution of DMSO at 10.0 or 100 mM. A portion of this stock solution was added to assay buffer in a final volume of 50 μL. Controls included buffer alone and enzyme solutions to which DMSO was added. Substrate was added to the reaction wells immediately or after incubation at room temperature. The reaction rates were measured spectrophotometrically by the generation of product at 405 nm for 600 sec. Background absorbance at 690 nm was measured and subtracted from the absorbance at 405 nm for each well.
# The reaction rate for enzyme alone was compared to the rate of enzyme in the presence of inhibitor and the percent inhibition was calculated as shown below: […]
# An established esterolytic assay for the measurement of Factor D activity and inhibition of Factor D activity was used (Kam, C. M.; McRae, B. J.; Harper, J. W.; Niemann, M. A.; Volanakis, J. E.; Powers, J. C. Human complement proteins D, C2, and B Active site mapping with peptide thioester substrates. J Biol. Chem. 1987, 262, 3444-3451). For this assay Z-Lys-SBzl, 1.29 mM (Kim, S.; Narayana, S. V. L; Volanakis, J. E. Mutational analysis of the substrate binding site of human complement Factor D. Biochemistry. 1994, 33, 14393-14399.) was used as the substrate for Factor D ([…]). Hydrolysis of this compound by Factor D liberated a free sulfhydryl group which is then reacted with 5,5′-dithiobis(2nitrobenzoic acid) producing an intense yellow color (Habeeb, A. F. S. A. Reaction of protein sulfhydryl groups with Ellman's Reagent. Methods in Enzymol. 1976, 25, 457-464.). The assays were performed in 96 well microtiter plates and rates of hydrolysis were monitored at 405 nm on a Biotek Synergy H1 plate reader. Hydrolysis rates were reported as change in mOD/min. The assay was conducted in 100 mM HEPES, 500 mM NaCl, pH 7.5 containing 10% DMSO in a final volume of 50 μL per well.
# An IC50, a compound concentration which inhibits 50% of the enzymatic activity, was calculated. Compounds in the examples were tested a minimum of three times.
# Chain of Factor D (P00746 26-253): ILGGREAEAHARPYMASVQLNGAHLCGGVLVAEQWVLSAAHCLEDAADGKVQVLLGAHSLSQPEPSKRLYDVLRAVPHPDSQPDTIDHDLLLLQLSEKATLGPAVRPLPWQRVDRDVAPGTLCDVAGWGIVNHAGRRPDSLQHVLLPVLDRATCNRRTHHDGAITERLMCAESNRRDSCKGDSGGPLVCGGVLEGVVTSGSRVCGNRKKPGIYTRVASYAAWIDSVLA
row,SMILES,IC50
1,"Cc1ccc(CC(=O)O)c(OCc2coc3c(OCC4CC4)cc(-c4cccc(CN)c4)cc23)c1 [Compound 161c, 2-(2-((5-(3-(aminomethyl)phenyl)-7-(cyclopropylmethoxy)benzofuran-3-yl)methoxy)-4-methylphenyl)acetic acid]",< 1000 nM
2,"CC(C)n1nc(C(=O)Nc2ccccc2CC(=O)O)c2cc(-c3cccc(CN)c3)ccc21 [Compound 293c, 2-(2-(5-(3-(aminomethyl)phenyl)-1-isopropyl-1H-indazole-3-carboxamido)phenyl)acetic acid]",< 1000 nM
3,"CC(C)n1nc(C(Oc2ccccc2CC(=O)O)c2ccccc2)c2cc(-c3cccc(CN)c3)ccc21 (stereo not drawn) [Compound 228e, 2-(2-((5-(3-(aminomethyl)phenyl)-1-isopropyl-1H-indazol-3-yl)(phenyl)methoxy)phenyl)acetic acid]",> 10000 nM
4,"NCc1nccc(-c2cc(COc3ccccc3CC(=O)O)cc3cc(COc4ccccc4CC(=O)O)oc23)c1F [Compound 28d, 2,2′-((((7-(2-(aminomethyl)-3-fluoropyridin-4-yl)benzofuran-2,5-diyl)bis(methylene))bis(oxy))bis(2,1-phenylene))diacetic acid]",< 1000 nM
5,"Cn1nc(Nc2ccccc2CC(=O)O)c2cc(-c3cccc(CN)c3)ccc21 [Compound 77d, 2-(2-((5-(3-(aminomethyl)phenyl)-1-methyl-1H-indazol-3-yl)amino)phenyl)acetic acid]",> 10000 nM
6,"COc1ccc(CC(=O)O)c(OCc2coc3ccc(-c4cccc(CN)c4)cc23)c1 [Compound 48b, 2-(2-((5-(3-(aminomethyl)phenyl)benzofuran-3-yl)methoxy)-4-methoxyphenyl)acetic acid]",< 1000 nM
7,"CCCc1oc2ccc(-c3cccc(CN)c3F)cc2c1COc1cc(OC)ccc1CC(=O)O [Compound 297b, 2-(2-((5-(3-(aminomethyl)-2-fluorophenyl)-2-propylbenzofuran-3-yl)methoxy)-4-methoxyphenyl)acetic acid]",< 1000 nM
8,"COc1c(-c2cc3c(COc4ccccc4CC(=O)O)cccc3o2)ccnc1CN [Compound 329d, 2-(2-((2-(2-(aminomethyl)-3-methoxypyridin-4-yl)benzofuran-4-yl)methoxy)phenyl)acetic acid]",1000 to 10000 nM
9,"NCc1cccc(-c2ccc3c(c2)c(COc2ccccc2CC(=O)O)nn3C2CCCC2)c1 [Compound 292c, 2-(2-((5-(3-(aminomethyl)phenyl)-1-cyclopentyl-1H-indazol-3-yl)methoxy)phenyl)acetic acid]",< 1000 nM
10,"CC(O)c1cc(-c2cccc(CN)c2)c2oc(COc3ccccc3CC(=O)O)cc2c1 (stereo not drawn) [Compound 31, 2-(2-((7-(3-(aminomethyl)phenyl)-5-(1-hydroxyethyl)benzofuran-2-yl)methoxy)phenyl)acetic acid]",< 1000 nM
11,"CCc1ccc(CC(=O)O)c(OCc2coc3ccc(-c4cccc(CN)c4F)cc23)c1 [Compound 12g, 2-(2-((5-(3-(aminomethyl)-2-fluorophenyl)benzofuran-3-yl)methoxy)-4-ethylphenyl)acetic acid]",< 1000 nM
12,"CC(C)n1nc(COc2ccccc2CC(=O)O)c2cc(-c3cccc([C@H](N)CO)c3)ccc21 [Compound 267b, (S)-2-(2-((5-(3-(1-amino-2-hydroxyethyl)phenyl)-1-isopropyl-1H-indazol-3-yl)methoxy)phenyl)acetic acid]",< 1000 nM
13,"CC(C)n1nc(COc2ccccc2CC(=O)O)c2cc(-c3cccc(N)c3)ccc21 [Compound 321c, 2-(2-((5-(3-aminophenyl)-1-isopropyl-1H-indazol-3-yl)methoxy)phenyl)acetic acid]",1000 to 10000 nM
14,"NCc1cccc(-c2cccc3cc(COc4cccc(CC(=O)O)c4)oc23)c1 [Compound 34c, 2-(3-((7-(3-(aminomethyl)phenyl)benzofuran-2-yl)methoxy)phenyl)acetic acid]",> 10000 nM

# Continued, values first:
row,IC50,SMILES
1,< 1000 nM,"NCc1cccc(-c2ccc3occ(COc4c(N)cccc4CC(=O)O)c3c2)c1 [Compound 90h, 2-(3-amino-2-((5-(3-(aminomethyl)phenyl)benzofuran-3-yl)methoxy)phenyl)acetic acid]"
2,< 1000 nM,"NCc1cccc(-c2cc(C3CC3)c3occ(COc4ccccc4CC(=O)O)c3c2)c1 [Compound 120c, 2-(2-((5-(3-(aminomethyl)phenyl)-7-cyclopropylbenzofuran-3-yl)methoxy)phenyl)acetic acid]"
3,< 1000 nM,"NCc1cccc(-c2cc(C(F)(F)F)c3occ(COc4ccccc4CC(=O)O)c3c2)c1 [Compound 113g, 2-(2-((5-(3-(aminomethyl)phenyl)-7-(trifluoromethyl)benzofuran-3-yl)methoxy)phenyl)acetic acid]"
4,< 1000 nM,"NCc1cccc(-c2ccc3occ(COc4c(F)cccc4CC(=O)O)c3c2)c1 [Compound 44d, 2-(2-((5-(3-(aminomethyl)phenyl)benzofuran-3-yl)methoxy)-3-fluorophenyl)acetic acid]"
5,< 1000 nM,"Cc1cccc(-c2cc(-c3cccc(CN)c3)cc3c(COc4ccccc4CC(=O)O)coc23)c1 [Compound 197c, 2-(2-((5-(3-(aminomethyl)phenyl)-7-(m-tolyl)benzofuran-3-yl)methoxy)phenyl)acetic acid]"
6,< 1000 nM,"NCc1cccc(-c2cc3cccc(COc4ccccc4CC(=O)O)c3o2)c1 [Compound 98g, 2-(2-((2-(3-(aminomethyl)phenyl)benzofuran-7-yl)methoxy)phenyl)acetic acid]"
7,< 1000 nM,"CC(C)Nc1cc(-c2cccc(CN)c2)cc2c(COc3ccccc3CC(=O)O)coc12 [Compound 148d, 2-(2-((5-(3-(aminomethyl)phenyl)-7-(isopropylamino)benzofuran-3-yl)methoxy)phenyl)acetic acid]"
8,< 1000 nM,"CC(C)Cn1cc(-c2cc(-c3cccc(CN)c3)cc3c(COc4ccccc4CC(=O)O)coc23)cn1 [Compound 129c, 2-(2-((5-(3-(aminomethyl)phenyl)-7-(1-isobutyl-1H-pyrazol-4-yl)benzofuran-3-yl)methoxy)phenyl)acetic acid]"
9,< 1000 nM,"NCc1cccc(-c2cc(OCCC3CCOCC3)c3occ(COc4ccccc4CC(=O)O)c3c2)c1 [Compound 249f, 2-(2-((5-(3-(aminomethyl)phenyl)-7-(2-(tetrahydro-2H-pyran-4-yl)ethoxy)benzofuran-3-yl)methoxy)phenyl)acetic acid]"
10,< 1000 nM,"NCc1cccc(-c2cc(-c3cccc(CN)c3)c3occ(COc4ccccc4CC(=O)O)c3c2)c1 [Compound 189c, 2-(2-((5,7-bis(3-(aminomethyl)phenyl)benzofuran-3-yl)methoxy)phenyl)acetic acid]"
11,< 1000 nM,"NCc1cccc(-c2cc(OCc3nccs3)c3occ(COc4ccccc4CC(=O)O)c3c2)c1 [Compound 196f, 2-(2-((5-(3-(aminomethyl)phenyl)-7-(thiazol-2-ylmethoxy)benzofuran-3-yl)methoxy)phenyl)acetic acid]"
12,< 1000 nM,"NCc1cccc(-c2cc(-c3c[nH]c4ccccc34)c3occ(COc4ccccc4CC(=O)O)c3c2)c1 [Compound 136d, 2-(2-((5-(3-(aminomethyl)phenyl)-7-(1H-indol-3-yl)benzofuran-3-yl)methoxy)phenyl)acetic acid]"
13,< 1000 nM,"C[C@@H]1CN(Cc2cc(-c3cccc(CN)c3)cc3c(COc4ccccc4CC(=O)O)coc23)C[C@H](C)O1 [Compound 208d, 2-(2-((5-(3-(aminomethyl)phenyl)-7-(((2R,6S)-2,6-dimethylmorpholino)methyl)benzofuran-3-yl)methoxy)phenyl)acetic acid]"
